Source: PubChem BioAssay AID1259407 (Chemical Carcinogenesis Research Information System (CCRIS), 2018)
Calls of active or inactive are those of the source. How the calls were made is not given here.

Test system: CCRIS mutagenicity, Ames/micronucleus/aberration tests
Assay: CCRIS mutagenicity studies
[1] = Test System: AMES SALMONELLA TYPHIMURIUM, Strain/Indicator: TA98, Metabolic Activation: NONE, Method: STANDARD PLATE
[2] = Test System: AMES SALMONELLA TYPHIMURIUM, Strain/Indicator: TA98, Metabolic Activation: RAT, LIVER, S-9, AROCLOR 1254, Method: STANDARD PLATE
[3] = Test System: AMES SALMONELLA TYPHIMURIUM, Strain/Indicator: TA100, Metabolic Activation: NONE, Method: STANDARD PLATE
[4] = Test System: AMES SALMONELLA TYPHIMURIUM, Strain/Indicator: TA100, Metabolic Activation: RAT, LIVER, S-9, AROCLOR 1254, Method: STANDARD PLATE
[5] = Test System: AMES SALMONELLA TYPHIMURIUM, Strain/Indicator: TA1535, Metabolic Activation: NONE, Method: STANDARD PLATE
[6] = Test System: AMES SALMONELLA TYPHIMURIUM, Strain/Indicator: TA1538, Metabolic Activation: NONE, Method: STANDARD PLATE
[7] = Test System: AMES SALMONELLA TYPHIMURIUM, Strain/Indicator: TA98, Metabolic Activation: HAMSTER, LIVER, S-9, AROCLOR 1254 (10%), Method: PREINCUBATION
[8] = Test System: AMES SALMONELLA TYPHIMURIUM, Strain/Indicator: TA98, Metabolic Activation: NONE, Method: PREINCUBATION
[9] = Test System: AMES SALMONELLA TYPHIMURIUM, Strain/Indicator: TA98, Metabolic Activation: RAT, LIVER, S-9, AROCLOR 1254 (10%), Method: PREINCUBATION
[10] = Test System: AMES SALMONELLA TYPHIMURIUM, Strain/Indicator: TA100, Metabolic Activation: HAMSTER, LIVER, S-9, AROCLOR 1254 (10%), Method: PREINCUBATION
[11] = Test System: AMES SALMONELLA TYPHIMURIUM, Strain/Indicator: TA100, Metabolic Activation: NONE, Method: PREINCUBATION
[12] = Test System: AMES SALMONELLA TYPHIMURIUM, Strain/Indicator: TA100, Metabolic Activation: RAT, LIVER, S-9, AROCLOR 1254 (10%), Method: PREINCUBATION
[13] = Test System: AMES SALMONELLA TYPHIMURIUM, Strain/Indicator: TA1535, Metabolic Activation: HAMSTER, LIVER, S-9, AROCLOR 1254 (10%), Method: PREINCUBATION
[14] = Test System: AMES SALMONELLA TYPHIMURIUM, Strain/Indicator: TA1535, Metabolic Activation: NONE, Method: PREINCUBATION
[15] = Test System: AMES SALMONELLA TYPHIMURIUM, Strain/Indicator: TA1535, Metabolic Activation: RAT, LIVER, S-9, AROCLOR 1254 (10%), Method: PREINCUBATION
[16] = Test System: AMES SALMONELLA TYPHIMURIUM, Strain/Indicator: TA1537, Metabolic Activation: HAMSTER, LIVER, S-9, AROCLOR 1254 (10%), Method: PREINCUBATION
[17] = Test System: AMES SALMONELLA TYPHIMURIUM, Strain/Indicator: TA1537, Metabolic Activation: NONE, Method: PREINCUBATION
[18] = Test System: AMES SALMONELLA TYPHIMURIUM, Strain/Indicator: TA1537, Metabolic Activation: RAT, LIVER, S-9, AROCLOR 1254 (10%), Method: PREINCUBATION

With `CSCCC(NC(=O)COc1cc(Cl)c(Cl)cc1Cl)C(=O)O` (stereo not drawn) the mutagenic call (Test System: AMES SALMONELLA TYPHIMURIUM, Strain/Indicator: TA97, Metabolic Activation: NONE, Method: STANDARD PLATE) was “inactive; negative”, the mutagenic call (Test System: AMES SALMONELLA TYPHIMURIUM, Strain/Indicator: TA97, Metabolic Activation: RAT, LIVER, S-9, AROCLOR 1254, Method: STANDARD PLATE) was “inactive; negative” and the mutagenic call [1] was “inactive; negative”. The mutagenic call [2] was “inactive; negative”, the mutagenic call [3] was “inactive; negative” and the mutagenic call [4] was “inactive; negative”. The mutagenic call [5] was “inactive; negative”, the mutagenic call (Test System: AMES SALMONELLA TYPHIMURIUM, Strain/Indicator: TA1535, Metabolic Activation: RAT, LIVER, S-9, AROCLOR 1254, Method: STANDARD PLATE) was “inactive; negative” and the mutagenic call [6] was “inactive; negative”. The mutagenic call (Test System: AMES SALMONELLA TYPHIMURIUM, Strain/Indicator: TA1538, Metabolic Activation: RAT, LIVER, S-9, AROCLOR 1254, Method: STANDARD PLATE) was “inactive; negative”.
`COc1ccc(CO)cc1` was tested, and the mutagenic call [3] was “inactive; negative”.
In the case of `c1ccc2c(c1)ccc1ccc3c(c12)CCC3`, the mutagenic call [4] is reported as “active; positive”.
In the case of `CCCCCCCCCCCCCOC(=O)c1ccccc1C(=O)OCCCCCCCCCCCCC`, the mutagenic call [7] is reported as “inactive; negative”, the mutagenic call [8] is reported as “inactive; negative” and the mutagenic call [9] is reported as “inactive; negative”. The mutagenic call [10] was “inactive; negative”, the mutagenic call [11] was “inactive; negative” and the mutagenic call [12] was “inactive; negative”. For the same compound, the mutagenic call [13] was “inactive; negative”, the mutagenic call [14] was “inactive; negative” and the mutagenic call [15] was “inactive; negative”. For the same compound, the mutagenic call [16] was “inactive; negative”, the mutagenic call [17] was “inactive; negative” and the mutagenic call [18] was “inactive; negative”.
In the case of `CC(=O)N[C@@H](CS/C(F)=C(\F)C(F)(F)F)C(=O)O`, the mutagenic call (Test System: AMES SALMONELLA TYPHIMURIUM, Strain/Indicator: TA100, Metabolic Activation: RAT, KIDNEY, S-9, AROCLOR 1254, Method: STANDARD PLATE) is reported as “inactive; negative”.
With `C=CCO` the mutagenic call (End Point: In vitro chromosomal aberrations, Test System: Chinese hamster lung (CHL/IU) cells, Metabolic Activation: Rat, Liver, S9, Phenobarbital and 5,6-benzoflavone) was “active; positive (structural changes and ploidy). toxicity at 0.008 mg/ml”, the mutagenic call (Test System: CHINESE HAMSTER V-79, Strain/Indicator: V-79/6-THIOGUANINE, Metabolic Activation: NONE) was “active; positive” and the mutagenic call (Test System: MOUSE LYMPHOMA, Strain/Indicator: L5178Y (TK+/TK-), Metabolic Activation: NONE, Method: SUSPENSION/PLATE) was “active; positive. reevaluation of results: positive”. The mutagenic call (Test System: Mouse lymphoma, Strain/Indicator: L5178Y (tk+/tk-), Metabolic Activation: Rat, Liver, S-9, Aroclor 1254, Method: Suspension/plate) was “inactive; negative”.
In the case of `Nc1cc(Cl)c(Cl)c(Cl)c1`, the mutagenic call [1] is reported as “inactive; negative”, the mutagenic call [2] is reported as “inactive; negative” and the mutagenic call [3] is reported as “inactive; negative”. For the same compound, the mutagenic call [4] was “inactive; negative”.
`CN(C)CCN(Cc1ccccc1)c1ccccc1` was tested, and the mutagenic call [7] was “inactive; negative”, the mutagenic call [8] was “inactive; negative” and the mutagenic call [9] was “inactive; negative”. The mutagenic call [10] was “inactive; negative”, the mutagenic call [11] was “inactive; negative” and the mutagenic call [12] was “inactive; negative”. The mutagenic call [13] was “inactive; negative”, the mutagenic call [14] was “inactive; negative” and the mutagenic call [15] was “inactive; negative”. The mutagenic call [16] was “inactive; negative”, the mutagenic call [17] was “inactive; negative” and the mutagenic call [18] was “inactive; negative”.
`Clc1ccc2cc3ccccc3cc2c1` was tested, and the mutagenic call [1] was “inactive; negative”, the mutagenic call [2] was “active; positive” and the mutagenic call [3] was “inactive; negative”. The mutagenic call [4] was “inactive; negative”.
For `O=C1C=CCO1`, the mutagenic call (Test System: AMES SALMONELLA TYPHIMURIUM, Strain/Indicator: TA98, Metabolic Activation: RAT, LIVER, MICROSOMES, PHENOBARBITAL, Method: STANDARD PLATE) was “inactive; negative” and the mutagenic call (Test System: AMES SALMONELLA TYPHIMURIUM, Strain/Indicator: TA100, Metabolic Activation: RAT, LIVER, MICROSOMES, PHENOBARBITAL, Method: STANDARD PLATE) was “inactive; negative”.
In the case of `O=NN(CC(=O)O)CC(=O)O`, the mutagenic call [1] is reported as “inactive; negative”, the mutagenic call (Test System: AMES SALMONELLA TYPHIMURIUM, Strain/Indicator: TA98, Metabolic Activation: RAT, LIVER, S-9, Method: STANDARD PLATE) is reported as “inactive; negative” and the mutagenic call [11] is reported as “active; positive”. The mutagenic call [3] was “inactive; negative”, the mutagenic call (Test System: AMES SALMONELLA TYPHIMURIUM, Strain/Indicator: TA100, Metabolic Activation: RAT, LIVER, S-9, Method: STANDARD PLATE) was “inactive; negative” and the mutagenic call [5] was “inactive; negative”. The mutagenic call (Test System: AMES SALMONELLA TYPHIMURIUM, Strain/Indicator: TA1535, Metabolic Activation: RAT, LIVER, S-9, Method: STANDARD PLATE) was “inactive; negative”, the mutagenic call (Test System: AMES SALMONELLA TYPHIMURIUM, Strain/Indicator: TA1537, Metabolic Activation: NONE, Method: STANDARD PLATE) was “inactive; negative” and the mutagenic call (Test System: AMES SALMONELLA TYPHIMURIUM, Strain/Indicator: TA1537, Metabolic Activation: RAT, LIVER, S-9, Method: STANDARD PLATE) was “inactive; negative”. The mutagenic call [6] was “inactive; negative” and the mutagenic call (Test System: AMES SALMONELLA TYPHIMURIUM, Strain/Indicator: TA1538, Metabolic Activation: RAT, LIVER, S-9, Method: STANDARD PLATE) was “inactive; negative”.
With `CC#CC(OC(=O)NC1CCCCC1)(c1ccccc1)c1ccccc1` the mutagenic call [3] was “active; positive”.
